Measurements as given in article PMC2737062 (Bioorganic & medicinal chemistry, 2009).
“Also recorded” adds a separate entry of the source. Counter-ions that a name gives are not always drawn. Like-named read-outs stand apart in the source and are kept apart here.

Legend:
[1] = molecular target: T1, soybean lipoxygenase-1 (sLO-1) (Glycine max, UniProt P08170); type: biochemical; details: for effect of LO product on the endogenous substrate mixture ratio ALA:LA: up to 5 μM product addition; for effect of inhibitor on the (kcat/KM)^ALA/(kcat/KM)^LA ratio: inhibitor in excess of its IC50 value
T1 sequence (P08170 1-839): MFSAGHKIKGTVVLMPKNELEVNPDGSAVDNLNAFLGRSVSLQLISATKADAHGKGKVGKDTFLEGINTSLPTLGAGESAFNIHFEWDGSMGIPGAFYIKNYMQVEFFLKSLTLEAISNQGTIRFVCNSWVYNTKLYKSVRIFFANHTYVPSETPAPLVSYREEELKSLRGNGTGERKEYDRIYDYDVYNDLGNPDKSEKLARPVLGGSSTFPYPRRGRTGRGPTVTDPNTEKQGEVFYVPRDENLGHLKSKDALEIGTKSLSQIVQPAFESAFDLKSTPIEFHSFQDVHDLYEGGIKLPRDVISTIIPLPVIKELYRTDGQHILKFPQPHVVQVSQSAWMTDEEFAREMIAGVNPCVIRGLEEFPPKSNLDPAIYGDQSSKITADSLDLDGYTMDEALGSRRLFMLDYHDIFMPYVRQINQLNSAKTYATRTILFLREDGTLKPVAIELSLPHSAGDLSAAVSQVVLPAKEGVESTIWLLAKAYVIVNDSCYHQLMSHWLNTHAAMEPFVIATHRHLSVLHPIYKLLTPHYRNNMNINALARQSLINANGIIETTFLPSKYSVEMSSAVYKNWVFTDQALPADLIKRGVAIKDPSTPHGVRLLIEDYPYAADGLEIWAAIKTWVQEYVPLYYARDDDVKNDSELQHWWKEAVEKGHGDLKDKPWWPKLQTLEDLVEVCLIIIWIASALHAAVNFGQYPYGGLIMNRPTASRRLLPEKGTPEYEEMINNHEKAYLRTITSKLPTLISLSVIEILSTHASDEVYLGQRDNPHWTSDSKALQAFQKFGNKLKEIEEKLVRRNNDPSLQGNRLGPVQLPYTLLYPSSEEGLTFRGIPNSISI

[2] = system: 15-hLO-1 (human reticulocyte 15-lipoxygenase); details: cited from earlier work
[3] = molecular target: T1, soybean lipoxygenase-1 (sLO-1); type: biochemical; details: for effect of LO product on the AA:LA ratio: up to 5 μM product
[4] = molecular target: T1, soybean lipoxygenase-1 (sLO-1); assay: IC50 assay of sLO-1 with PS, OS and OA inhibitors, LA as substrate; type: biochemical

In the case of `CCCCC/C=C\C[C@H](O)/C=C/C=C\C/C=C\CCCC(=O)O` [12-HETE, 12-(S)-hydroxyeicosatetraenoic acid], the “effect of LO product on the endogenous substrate mixture ratio ALA:LA” value [1] is listed as “no effect”, the “(kcat/KM)^AA/(kcat/KM)^LA ratio of 15-hLO-1” value ([2]; with 12-HETE, increase from 1.8) is listed as 2.7 and the “(kcat/KM)^AA/(kcat/KM)^LA ratio” value ([3]; addition of 12-HETE (5 μM), control 1.8 ± 0.2) is listed as 2.4 ± 0.2. The “maximum (kcat/KM)^AA/(kcat/KM)^LA ratio at saturating conditions” value ([3]; calculated from saturation curve fit) was 5.1 ± 0.3, the “binding affinity to sLO-1 weaker than to 15-hLO-1” value ([3]; ratio of half saturation points, sLO-1 vs 15-hLO-1) was ~30 fold and the “effect on sLO-1 catalysis” value ([3]; saturating amounts at the allosteric site, both AA and LA as substrate) was “inhibit sLO-1”.

In the case of `CCCCC[C@H](O)/C=C/C=C\CCCCCCCC(=O)O` [13-HODE, 13-(S)-hydroxyoctadecadienoic acid], the “effect of LO product on the endogenous substrate mixture ratio ALA:LA” value [1] is given as “no effect”, the “(kcat/KM)^AA/(kcat/KM)^LA ratio of 15-hLO-1” value ([2]; 5 μM 13-HODE, increase from 1.4) is given as 2.9 and the “effect of LO product on the AA:LA ratio” value [3] is given as “no observable effect; also recorded: did not display any observable effect”.

With `CC/C=C\C[C@H](O)/C=C/C=C\CCCCCCCC(=O)O` [13-HOTrE] the “effect of LO product on the endogenous substrate mixture ratio ALA:LA” value [1] was “no effect” and the “effect of LO product on the AA:LA ratio” value [3] was “no observable effect”.

With `CCCCC/C=C\C/C=C\C/C=C\C/C=C\CCCC(=O)O` [AA, arachidonic acid] the “(kcat/KM)^AA/(kcat/KM)^LA ratio (substrate specificity, no effector)” value ([3]; AA:LA 1:1, 1 μM total substrate, 100 mM Borate pH 9.2, 22 °C) was 1.8 ± 0.2.

In the case of `CC/C=C\C/C=C\C/C=C\CCCCCCCC(=O)O` [ALA, α-linolenic acid], the “(kcat/KM)^ALA/(kcat/KM)^LA ratio (substrate specificity, no effector)” value ([1]; ALA:LA 1:1, 1 μM total substrate, 100 mM Borate pH 9.2, 22 °C) is reported as 0.75 ± 0.5.

In the case of `CCCCCCCC/C=C\CCCCCCCC(=O)O` [OA, oleic acid], the “effect of inhibitor on the (kcat/KM)^ALA/(kcat/KM)^LA ratio” value [1] is reported as “none of the inhibitors, OS, OA, or PS, affected”, the IC50 [4] is reported as 11000 ± 3000 nM and the “effect of inhibitor on the AA:LA substrate ratio” value ([3]; competitive inhibitor, at IC50 and 5-fold IC50) is reported as “no effect”.

In the case of `CCCCCCCC/C=C\CCCCCCCCOS(=O)(=O)O` [OS, oleyl sulfate], the “effect of inhibitor on the (kcat/KM)^ALA/(kcat/KM)^LA ratio” value [1] is reported as “none of the inhibitors, OS, OA, or PS, affected”, the IC50 [4] is reported as 1000 ± 100 nM and the AC50 [3] is reported as 1500 ± 300 nM.
